# Laboratory results as given in US20120276577A1, “Method for Determining the Susceptibility of a Cell Strain to Drugs” (ASSISTANCE PUBLIQUE - HOPITAUX DE PARIS, priority 2009, published 2012).
# Like-named read-outs stand apart in the source and are kept apart here.
# Experiments:
# Candida albicans [1] = test: MALDI-TOF MS minimal profile change concentration (MPCC) determination; type: cell-based; conditions: for FCZ MPCCs: 15 h culture, MALDI-TOF MS
# Description: Fluconazole (FCZ) pure powder (Sigma Chemical CO., Saint-Louis, Mo., USA) was dissolved in pure water. Serial dilutions of drug (concentration ranged from 256 to 0.25 μg/ml), made into RPMI 1640 medium (with glutamine and without bicarbonate, Invitrogen) buffered with MOPS (0.165M) (Sigma Chemical CO., Saint-Louis, Mo., USA) and adjusted to pH 7 with sodium hydroxide (5N), were dispensed in 600 μl aliquots into sterile 24-well flat-bottomed microtiter plates.
# After cultivation during 48 h at 37° C. on Sabouraud agar medium, yeasts cells were transferred into RPMI 1640 medium (with glutamine but without bicarbonate, Invitrogen) buffered with MOPS (0.165M) (Sigma Chemical CO., Saint-Louis, Mo., USA), and adjusted to pH 7 with sodium hydroxide (5N). Then, 600 μl of RPMI with yeast (2.106 yeasts/imp were added to 600 μl of RPMI with FCZ into microtiter plates (final FCZ concentration ranged from 128 to 0.125 μg/ml), or in RPMI alone as negative control. Culture was performed in a 30° C. incubator for 15 hours, with continuous agitation.
# Yeast extraction was performed as follows: • (1) samples were centrifuged and the supernatant removed before the pellet was washed twice in pure water; • (2) the pellet was then resuspended in 300 μL of pure water, and 900 μL of ethanol were then added; • (3) after another round of centrifugation, 50 μL of 70% formic acid and 50 μL pure acetonitrile were added to the residual pellet and subsequent solution was repeatedly and thoroughly vortexed before a final centrifugation. Each centrifugation was performed at 10 000 rpm for 10 minutes at room temperature.
# The supernatant was distributed (0.5 μl droplet) in duplicate on a MALDI AnchorChip sample slide (Bruker-Daltonics, Bremen, Germany), then air-dried. The α-cyano-4-hydroxycinnamic acid (CHCA) matrix (Bruker-Daltonics), prepared at a concentration of 50 mg/ml in 50% acetonitrile and 50% water with 0.1% TFA, was sonicated for 5 min before being spotted (0.5 μl) over the dried sample. A DH5a Escherichia coil protein extract (Bruker-Daltonics) was deposited on the calibration spot of the Anchorchip for external calibration. MALDI analysis were performed on a Bruker Autoflex I MALDI TOF mass spectrometer with a nitrogen laser (337 nm) operating in linear mode with delayed extraction (260 ns) at 20 kV accelerating voltage. Each spectrum was automatically collected in the positive ion mode as an average of 500 laser shots (50 laser shots at 10 different spot positions). Laser energy was set just above the threshold for ion production. Mass range between 3,000 and 20,000 m/z (ratio mass/charge) was selected to collect the signals with the AutoXecute tool of flexControl acquisition software (Version 2.4; Bruker-Daltonics). Only peaks with a signal/noise ratio >3 were considered. […] For each cultivation condition, we collected mass spectra from 3 biological replicates and 2 technical replicates.
# Data obtained from the flex control acquisition software were a set of lists of mass/charge peaks and corresponding intensities, one list for each spectrum. For each FCZ concentration (11 FCZ concentrations and without FCZ), 6 spectra, obtained from 3 biological replicates tested in duplicate, were collected, so the whole initial set of data consisted of 72 spectra.
# Alignment was performed using a method based on the mean spectrum, using an approach similar to that recommended by Coombes et al. (Coombes K R, Baggerly K A, and Morris J S: Pre-Processing Mass Spectrometry Data. Fundamentals of Data Mining in Genomics and Proteomics, W Dubitzky, M Granzow, and D Berrar, eds. Kluwer, Boston, 79-99 (2007)).
# The mean spectrum of the 72 spots was computed, a simple peak detection algorithm was run on the mean spectrum, and a selection of the final peak locations was based on the mean intensity of the peak. For each spectrum, the peaks corresponding to the final peak locations were retained for the statistical analysis. […]
# Candida albicans [2] = conditions: CLSI, cited from earlier work
# [3] = C. albicans clinical isolate DSY281 (group A)
# [4] = C. albicans clinical isolate DSY284 (group A)
# [5] = C. albicans clinical isolate DSY289 (group F)
# [6] = C. albicans clinical isolate DSY290 (group G)
# [7] = C. albicans clinical isolate DSY292 (group G)
# [8] = C. albicans clinical isolate DSY 294 (group B)
# [9] = C. albicans clinical isolate DSY296 (group B)
# [10] = C. albicans clinical isolate DSY347 (group F)
# [11] = C. albicans clinical isolate DSY544 (group C)
# [12] = C. albicans clinical isolate DSY2260 (group D)
# [13] = C. albicans clinical isolate DSY2262 (group D)
# [14] = C. albicans clinical isolate DSY2284 (group H)
# [15] = C. albicans clinical isolate DSY2285 (group H)
# [16] = C. albicans clinical isolate DSY2321 (group E)
# [17] = C. albicans clinical isolate DSY2322 (group E)
# [18] = C. albicans clinical isolate DYS775 (group C)
# [19] = C. albicans reference strain ATCC 90028
compound,measurement,setting,value
"OC(Cn1cncn1)(Cn1cncn1)c1ccc(F)cc1F [FCZ, Fluconazole]",FCZ MPCCs,Candida albicans [1]; [3],0.5 µg/mL
same,FCZ MPCCs,Candida albicans [1]; [4],8 µg/mL
same,FCZ MPCCs,Candida albicans [1]; [5],128 µg/mL
same,FCZ MPCCs,Candida albicans [1]; [6],0.25 µg/mL
same,FCZ MPCCs,Candida albicans [1]; [7],128 µg/mL
same,FCZ MPCCs,Candida albicans [1]; [8],0.25 µg/mL
same,FCZ MPCCs,Candida albicans [1]; [9],128 µg/mL
same,FCZ MPCCs,Candida albicans [1]; [10],0.125 µg/mL
same,FCZ MPCCs,Candida albicans [1]; [11],0.25 µg/mL
same,FCZ MPCCs,Candida albicans [1]; [12],4 µg/mL
same,FCZ MPCCs,Candida albicans [1]; [13],32 µg/mL
same,FCZ MPCCs,Candida albicans [1]; [14],0.5 µg/mL
same,FCZ MPCCs,Candida albicans [1]; [15],16 µg/mL
same,FCZ MPCCs,Candida albicans [1]; [16],0.5 µg/mL
same,FCZ MPCCs,Candida albicans [1]; [17],16 µg/mL
same,FCZ MPCCs,Candida albicans [1]; [18],64 µg/mL
same,FCZ MPCCs,Candida albicans [1]; [19],0.25 µg/mL
same,mass spectrometry spectra compared with the control culture,"Candida albicans [1]; DSY2260 C. albicans, cultures exposed up to 2 μg/ml FCZ, 15 h",indistinguishable
same,FCZ MICs,Candida albicans [2]; [3],1 µg/mL
same,FCZ MICs,Candida albicans [2]; [4],32 µg/mL
same,FCZ MICs,Candida albicans [2]; [5],128 µg/mL
same,FCZ MICs,Candida albicans [2]; [6],0.5 µg/mL
same,FCZ MICs,Candida albicans [2]; [7],128 µg/mL
same,FCZ MICs,Candida albicans [2]; [8],0.25 µg/mL
same,FCZ MICs,Candida albicans [2]; [9],128 µg/mL
same,FCZ MICs,Candida albicans [2]; [10],0.25 µg/mL
same,FCZ MICs,Candida albicans [2]; [11],0.5 µg/mL
same,FCZ MICs,Candida albicans [2]; [12],8 µg/mL
same,FCZ MICs,Candida albicans [2]; [13],64 µg/mL
same,FCZ MICs,Candida albicans [2]; [14],0.25 µg/mL
same,FCZ MICs,Candida albicans [2]; [15],16 µg/mL
same,FCZ MICs,Candida albicans [2]; [16],0.25 µg/mL
same,FCZ MICs,Candida albicans [2]; [17],16 µg/mL
same,FCZ MICs,Candida albicans [2]; [18],128 µg/mL
same,FCZ MICs,Candida albicans [2]; [19],0.25 µg/mL
